Results reported in ChEMBL document CHEMBL1139926, “Identification of 6-substituted 4-arylsulfonyl-1,4-diazepane-2,5-diones as a novel scaffold for human chymase inhibitors” (Bioorg Med Chem Lett, 2007).

Columns and labels:
Chymase = biological target: T1, Chymase (Homo sapiens, UniProt P23946); test: Inhibition of human recombinant chymase
T1 sequence (P23946 whole entry): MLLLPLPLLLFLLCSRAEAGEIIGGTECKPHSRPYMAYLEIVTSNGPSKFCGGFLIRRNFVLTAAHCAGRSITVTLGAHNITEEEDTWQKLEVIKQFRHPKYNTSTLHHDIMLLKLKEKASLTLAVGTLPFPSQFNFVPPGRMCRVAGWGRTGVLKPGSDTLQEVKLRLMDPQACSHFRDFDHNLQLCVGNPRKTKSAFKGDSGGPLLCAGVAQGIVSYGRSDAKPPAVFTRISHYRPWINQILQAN

[1] = Inhibition of bovine pancreatic alpha chymotrypsin; parameters: species or system Bos taurus
Cathepsin G = biological target: T2, Cathepsin G (Homo sapiens, UniProt P08311); test: Inhibition of human neutrophil cathepsin G
T2 sequence (P08311 whole entry): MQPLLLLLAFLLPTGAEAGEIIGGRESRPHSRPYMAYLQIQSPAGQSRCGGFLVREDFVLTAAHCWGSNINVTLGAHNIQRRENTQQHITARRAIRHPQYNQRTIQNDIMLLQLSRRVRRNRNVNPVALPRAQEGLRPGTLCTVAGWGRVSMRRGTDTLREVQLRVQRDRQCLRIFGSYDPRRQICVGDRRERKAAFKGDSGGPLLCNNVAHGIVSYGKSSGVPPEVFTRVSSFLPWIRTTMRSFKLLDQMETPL

[2] = Inhibition of bovine pancreatic trypsin; parameters: species or system Bos taurus
Neutrophil elastase = biological target: T3, Neutrophil elastase (Homo sapiens, UniProt P08246); test: Inhibition of human neutrophil elastase
T3 sequence (P08246 whole entry): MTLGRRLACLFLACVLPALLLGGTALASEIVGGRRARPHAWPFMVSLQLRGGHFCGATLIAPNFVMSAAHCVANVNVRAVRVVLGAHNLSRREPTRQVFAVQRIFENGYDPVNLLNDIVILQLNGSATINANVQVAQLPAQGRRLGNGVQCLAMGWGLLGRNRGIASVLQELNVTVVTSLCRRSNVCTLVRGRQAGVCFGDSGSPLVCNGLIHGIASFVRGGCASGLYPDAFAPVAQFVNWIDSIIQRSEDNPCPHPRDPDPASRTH

Compound: O=C1CN(S(=O)(=O)c2ccc(Cl)cc2)C(=O)C(Cc2ccc3ccccc3c2)CN1 (racemic)
- IC50 (Chymase): > 10 µM

Compound: O=C1CN(S(=O)(=O)c2ccc(Cl)cc2)C(=O)C(Cc2cccnc2)CN1 (racemic)
- IC50 (Chymase): > 10 µM

Compound: O=C1CN(S(=O)(=O)c2ccc(Cl)cc2)C(=O)C(Cc2ccncc2)CN1 (racemic)
- IC50 (Chymase): > 10 µM

Compound: COc1ccc(Cl)cc1CC1CNC(=O)CN(S(=O)(=O)c2ccc(Cl)cc2)C1=O (racemic)
- IC50 [1]: 0.3 µM
- IC50 (Cathepsin G): 2.9 µM
- IC50 [2]: > 10 µM
- IC50 (Neutrophil elastase): > 10 µM

Compound: O=C1CN(S(=O)(=O)c2ccc(Cl)cc2)C(=O)C(CC2CCCCC2)CN1 (racemic)
- IC50 (Chymase): > 10 µM

Compound: CC(C)C[C@H](NC(=O)[C@@H](NC(=O)N[C@@H](Cc1ccccc1)C(=O)O)C1CCN=C(N)N1)C(=O)N[C@H](C=O)Cc1ccccc1 (some centres undefined) [CHYMOSTATIN]
- IC50 (Chymase): 0.043 µM
